Test results: US20120322812A1, “RUTAECARPINE DERIVATIVES FOR TREATING INSOMNIA” (priority 2011, published 2012)

Tested on: CYP1A2
Assay: MEROD assay in live Hepa1c1c7 cells preincubated with test compound (CYP1A2 induction)
Format: cell-based, mouse
From the text: FIG. 1 illustrates how caffeine is primarily metabolized to paraxanthine via CYP1A2 enzyme in a human, according to some embodiments. The MEROD (methoxyresorufin-O-demethylase) assay measures the activity of the enzyme (CYP1A2) that converts methoxyresorufin (probe substrate) to resorufin (demethylation) in the presence of NADPH. The resulting resorufin concentration can be measured using a fluorescence reader by setting the excitation and emission wavelengths at 544 and 590 nm, respectively.
For MEROD assay in live cells, Hepa1c1c7 cells were cultured in either 6-well or 24-well-plates. For the 24-well plate experiment, after confluent cells were incubated for approximately 20 hours with either resorufin, nitro-resorufin, chloro-resorufin, 3-MC or DMSO (in triplicates), culture media was removed and 180 μL fresh culture media containing […] methoxyresorufin was added per well. After 1 hour incubation at 37° C., 100 μL aliquot was taken from each well and the formation of resorufin was measured by fluorescence. […] After 5 hours incubation at 37° C., 100 μL aliquot was taken from each well, centrifuged at 12,000 g at RT for ˜5 min and the supernatants were placed into wells of a 96-well fluorescence plate and the formation of resorufin was measured by fluorescence.

`O=c1c2ccc(Cl)cc2nc2n1CCc1c-2[nH]c2ccccc12` [chloro-rutaecarpine] was tested, and the “formation of resorufin in live cells (MEROD assay)” value (Hepa1c1c7 cells incubated with 2 μM compound, compared to DMSO, 24-well and 6-well plate studies) was “significant difference” and the “formation of resorufin in live cells (MEROD assay)” value (Hepa1c1c7 cells incubated with 10 μM compound) was “no marked difference”.
